Data taken from patent publication US20240228543A1, “CYCLIC PEPTIDE INHIBITORS OF USP22” (THE JOHNS HOPKINS UNIVERSITY, priority 2021, published 2024).
Positions of bridges follow the written chain, without caps; N, C: chain ends. Non-standard residues stand in square brackets, D forms with d. Residues, ends and D or L forms follow the SMILES beside them.

Experiments:
[1] = target: T1, USP30 (Homo sapiens, UniProt Q70CQ3); test: End-point Ub-AMC cleavage by off-target DUB USP30; assay type: biochemical; settings: 1 μM hD1, 200 nM USP30, 1 μM Ub-AMC
T1 sequence (Q70CQ3 1-517): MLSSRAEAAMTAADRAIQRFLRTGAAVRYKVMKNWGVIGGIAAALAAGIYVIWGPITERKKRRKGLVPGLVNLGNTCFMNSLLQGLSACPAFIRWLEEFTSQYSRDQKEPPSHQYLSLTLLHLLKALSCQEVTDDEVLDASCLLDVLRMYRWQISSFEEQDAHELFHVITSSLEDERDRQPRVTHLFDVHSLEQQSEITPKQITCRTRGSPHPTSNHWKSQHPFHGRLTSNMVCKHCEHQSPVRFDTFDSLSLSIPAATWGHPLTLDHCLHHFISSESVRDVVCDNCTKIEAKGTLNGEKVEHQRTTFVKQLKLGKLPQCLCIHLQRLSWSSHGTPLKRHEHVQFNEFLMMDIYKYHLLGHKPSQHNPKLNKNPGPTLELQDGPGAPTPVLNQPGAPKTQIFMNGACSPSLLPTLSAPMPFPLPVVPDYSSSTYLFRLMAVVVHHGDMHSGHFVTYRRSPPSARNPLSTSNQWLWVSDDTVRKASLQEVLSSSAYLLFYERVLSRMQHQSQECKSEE
Text: USP7 and USP30 are USP DUBs and belong to the same structural family as USP22, while CYLD belongs to the structurally distinct ubiquitin C-terminal hydrolase (UCH) family of DUBs. […]

[2] = target: T2, USP27x (Homo sapiens, UniProt A6NNY8); test: DUBprofiler panel, USP27x alone; assay type: biochemical; settings: 1 μM hD1, USP27x alone without other subunits
T2 construct: purchased Ubiquigent (DUBprofiler panel)
T2 sequence (A6NNY8 1-438): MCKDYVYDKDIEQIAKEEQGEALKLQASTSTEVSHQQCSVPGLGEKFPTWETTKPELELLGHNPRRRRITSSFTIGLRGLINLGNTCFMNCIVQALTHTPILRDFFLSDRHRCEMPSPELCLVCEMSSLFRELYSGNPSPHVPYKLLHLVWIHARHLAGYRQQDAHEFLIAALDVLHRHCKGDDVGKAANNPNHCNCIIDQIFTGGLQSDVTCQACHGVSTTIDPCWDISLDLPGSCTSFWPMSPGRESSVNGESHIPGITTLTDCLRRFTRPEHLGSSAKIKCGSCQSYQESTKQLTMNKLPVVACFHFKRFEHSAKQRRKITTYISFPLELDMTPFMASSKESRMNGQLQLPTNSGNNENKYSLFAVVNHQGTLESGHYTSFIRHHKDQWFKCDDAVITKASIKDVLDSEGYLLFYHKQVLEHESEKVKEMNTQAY
Procedure: The human genome encodes about 80 active DUBs, 55 of which belong to the same USP structural family as USP22, thus presenting a challenge to the development of specific DUB inhibitors. […] The activity of each DUB was tested in the presence of a single concentration of inhibitor and compared with enzyme activity in the absence of compound. […] In this screen, however, USP27x alone was tested in the absence of other subunits.

[3] = target: T3, USP51/ATXN7L3/ENY2 (Homo sapiens, UniProt Q70EK9); test: Inhibition of H2B DUB complexes, Ub-AMC cleavage: USP51 complex; assay type: biochemical; settings: 1000 nM complex, 5 μM Ub-AMC
T3 construct: made in house
T3 sequence (Q70EK9 1-711): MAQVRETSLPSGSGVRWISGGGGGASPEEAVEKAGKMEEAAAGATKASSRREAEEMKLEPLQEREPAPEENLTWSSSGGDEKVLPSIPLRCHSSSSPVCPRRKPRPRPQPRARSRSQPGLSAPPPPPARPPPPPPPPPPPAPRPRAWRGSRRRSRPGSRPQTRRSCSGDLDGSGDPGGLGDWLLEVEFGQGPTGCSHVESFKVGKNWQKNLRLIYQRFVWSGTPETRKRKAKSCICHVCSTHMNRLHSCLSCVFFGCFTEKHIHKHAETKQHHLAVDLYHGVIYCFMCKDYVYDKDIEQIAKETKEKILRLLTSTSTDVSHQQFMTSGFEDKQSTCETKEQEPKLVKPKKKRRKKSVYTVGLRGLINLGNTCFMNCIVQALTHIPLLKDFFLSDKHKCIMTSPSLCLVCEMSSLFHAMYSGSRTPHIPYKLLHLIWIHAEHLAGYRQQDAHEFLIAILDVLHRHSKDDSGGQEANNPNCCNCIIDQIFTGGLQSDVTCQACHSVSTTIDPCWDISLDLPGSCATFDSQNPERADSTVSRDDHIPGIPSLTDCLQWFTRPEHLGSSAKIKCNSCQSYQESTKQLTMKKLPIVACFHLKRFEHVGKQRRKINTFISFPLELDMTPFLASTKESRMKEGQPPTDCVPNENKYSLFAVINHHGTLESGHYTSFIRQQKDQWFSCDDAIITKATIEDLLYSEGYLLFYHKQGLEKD
T3 sequence (Q14CW9 1-347 partner): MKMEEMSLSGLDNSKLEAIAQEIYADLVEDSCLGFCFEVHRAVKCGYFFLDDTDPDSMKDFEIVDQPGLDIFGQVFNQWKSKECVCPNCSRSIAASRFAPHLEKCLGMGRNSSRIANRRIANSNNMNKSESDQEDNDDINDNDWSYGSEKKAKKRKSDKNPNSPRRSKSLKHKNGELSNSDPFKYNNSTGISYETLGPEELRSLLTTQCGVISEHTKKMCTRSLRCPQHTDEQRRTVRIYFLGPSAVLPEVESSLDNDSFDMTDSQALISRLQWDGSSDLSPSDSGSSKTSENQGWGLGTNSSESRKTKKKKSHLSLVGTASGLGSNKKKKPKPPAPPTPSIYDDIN
T3 sequence (Q9NPA8 1-101 partner): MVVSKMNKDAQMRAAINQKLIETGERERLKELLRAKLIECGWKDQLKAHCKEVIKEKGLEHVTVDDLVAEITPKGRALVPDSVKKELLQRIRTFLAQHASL
Procedure: (§1) Cleavage rates of 5 μM Ub-AMC were assayed for 75 nM USP22/ATXN7L3/ENY2/ATXN7 (hDUBm), 100 nM USP27x/ATXN7L3/ENY2, or 1000 nM USP51/ATXN7L3/ENY2. Rates were normalized to the uninhibited reaction in each case to determine the fraction of apparent activity.
(§2) DUB specificity assays Ubiquitin-rhodamine(110)-glycine cleavage rates were measured for all DUBs available in the DUBprofiler™ panel with two independent replicates (44 in total; Ubiquigent). […] USP22 was not included in the panel, and is not represented in FIG. 12A. […] Initial cleavage rates of each complex were measured on a fixed concentration of 5 μM Ub-AMC.
(§3) Heterotrimeric complexes containing USP27x and USP51 were purified, respectively, in complex with ENY2 and ATXN7L3. The activity of these complexes on Ub-AMC was compared to that of the human DUBm, which contains USP22, ENY2, ATXN7L3, and a fourth subunit, ATXN7, that anchors the DUBm to the rest of the SAGA complex.

[4] = target: USP22/ATXN7L3/ENY2/ATXN7 (hDUBm) (Homo sapiens, UniProt Q9UPT9); test: biochemical
Chain of USP22/ATXN7L3/ENY2/ATXN7 (hDUBm) (Q9UPT9 whole entry, one chain of several): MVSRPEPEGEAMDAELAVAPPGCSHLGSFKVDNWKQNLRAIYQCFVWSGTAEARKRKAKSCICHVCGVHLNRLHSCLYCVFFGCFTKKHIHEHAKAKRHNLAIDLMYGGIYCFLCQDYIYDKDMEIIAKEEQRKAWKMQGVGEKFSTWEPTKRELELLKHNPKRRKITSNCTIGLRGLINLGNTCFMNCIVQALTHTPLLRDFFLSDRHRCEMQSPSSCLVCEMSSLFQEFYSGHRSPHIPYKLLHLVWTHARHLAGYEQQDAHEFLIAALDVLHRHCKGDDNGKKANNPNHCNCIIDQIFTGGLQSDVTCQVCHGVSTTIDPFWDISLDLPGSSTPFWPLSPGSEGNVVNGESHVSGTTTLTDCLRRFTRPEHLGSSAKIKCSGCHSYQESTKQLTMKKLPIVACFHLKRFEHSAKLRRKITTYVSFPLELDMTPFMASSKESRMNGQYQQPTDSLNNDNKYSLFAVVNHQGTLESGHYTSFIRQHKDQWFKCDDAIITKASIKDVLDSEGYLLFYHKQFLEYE
Chain of USP22/ATXN7L3/ENY2/ATXN7 (hDUBm) (O15265 3-151 partner limits assumed, one chain of several): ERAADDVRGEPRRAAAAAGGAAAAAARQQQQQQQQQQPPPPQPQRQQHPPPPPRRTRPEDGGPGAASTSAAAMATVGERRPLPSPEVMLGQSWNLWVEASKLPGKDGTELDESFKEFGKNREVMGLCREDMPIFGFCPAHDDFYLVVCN
Procedure: as §1, §2, §3

With `CC[C@H](C)[C@@H]1NC(=O)[C@H](C)NC(=O)[C@@H](Cc2ccc(O)cc2)NC(=O)CSC[C@@H](C(N)=O)NC(=O)[C@H](CC(C)C)NC(=O)[C@H](CC(C)C)NC(=O)[C@H]([C@@H](C)O)NC(=O)[C@H]([C@@H](C)O)NC(=O)[C@H](CCCCN)NC(=O)CNC(=O)[C@H](CCCNC(=N)N)NC(=O)[C@H](Cc2ccc(O)cc2)NC(=O)[C@H](CO)NC1=O` [hD1] ({CH2CO}-[dY]AISYRGKTTLLC-NH2; thioether N-13) the “effect on USP30 activity” value [1] was roughly 15%, the “reduction of USP27x activity” value [2] was roughly 50% and the IC50 [3] was greater than 250000 nM. For the same molecule, the IC50 [4] was 100 nM.
